Assay results reported in PMC12249905, “Substituted Triazole-3,5-Diamine Compounds as Novel Human Topoisomerase III Beta Inhibitors” (International Journal of Molecular Sciences, 2025).

Columns and labels:
[1] = Cell viability of human dermal fibroblasts (CellTiter-Blue); type: cell-based; details: primary human dermal fibroblasts (HdFa), 100 µM (highest concentration), 24 h exposure, relative to untreated control
Description: Human dermal fibroblasts (HdFa; PCS-210-012™, ATCC, Manassas, VA, USA) were cultured in Dulbecco’s Modified Eagle Medium (DMEM; supplemented with GlutaMAX™ and sodium pyruvate; Gibco, Waltham, MA, USA), containing 10% fetal bovine serum (FBS; Gibco) and 1% penicillin-streptomycin (10,000 U/mL; Gibco). Cells were maintained in T75 tissue culture flasks (Thermo Scientific Nunc™, Roskilde, Denmark) under standard incubation conditions (37 °C, 5% CO2, humidified atmosphere). Upon reaching confluency, cells were harvested and seeded into black-walled, clear-bottom, 96-well plates at a density of 5000 cells/well in 100 µL of complete growth medium. Following overnight incubation, the cells reached approximately 80–90% confluence. […]
After 24 h of compound exposure, 20 µL of CellTiter-Blue® reagent (Promega, WI, USA) was added to each well. Plates were incubated for an additional 2 h at 37 °C, after which the fluorescence of the metabolized resorufin product was measured using a Synergy Multi-Mode Plate Reader (BioTek Instruments, Winooski, VT, USA) at an excitation wavelength of 560 nm and an emission wavelength of 590 nm. Cellular viability in response to the test compounds was expressed as a percentage relative to the untreated control group.(1) Cell viability (%)=Fluorescenceintensityoftreatedcells/Fluorescenceintensityofcontrolcells×[…]

human TOP3B = target: T1, human TOP3B (Homo sapiens, UniProt O95985); assay: Assay of inhibition of human TOP3B relaxation activity (chloroquine gel electrophoresis, TDRD3 present); type: biochemical; details: for IC50: DNA relaxation, 18 nM TOP3B and TDRD3, supercoiled pBAD/Thio plasmid, 37 °C 1 h; for Inhibition of the DNA relaxation activity of human TOP3B: tested at up to 200 µM
T1 construct: GST (N); 6xHis (C); purchased Genscript (custom production); host or cells: sf9 insect cells (TOP3B); E. coli Rosetta(DE3) (TDRD3, made in house)
T1 sequence (O95985 1-862): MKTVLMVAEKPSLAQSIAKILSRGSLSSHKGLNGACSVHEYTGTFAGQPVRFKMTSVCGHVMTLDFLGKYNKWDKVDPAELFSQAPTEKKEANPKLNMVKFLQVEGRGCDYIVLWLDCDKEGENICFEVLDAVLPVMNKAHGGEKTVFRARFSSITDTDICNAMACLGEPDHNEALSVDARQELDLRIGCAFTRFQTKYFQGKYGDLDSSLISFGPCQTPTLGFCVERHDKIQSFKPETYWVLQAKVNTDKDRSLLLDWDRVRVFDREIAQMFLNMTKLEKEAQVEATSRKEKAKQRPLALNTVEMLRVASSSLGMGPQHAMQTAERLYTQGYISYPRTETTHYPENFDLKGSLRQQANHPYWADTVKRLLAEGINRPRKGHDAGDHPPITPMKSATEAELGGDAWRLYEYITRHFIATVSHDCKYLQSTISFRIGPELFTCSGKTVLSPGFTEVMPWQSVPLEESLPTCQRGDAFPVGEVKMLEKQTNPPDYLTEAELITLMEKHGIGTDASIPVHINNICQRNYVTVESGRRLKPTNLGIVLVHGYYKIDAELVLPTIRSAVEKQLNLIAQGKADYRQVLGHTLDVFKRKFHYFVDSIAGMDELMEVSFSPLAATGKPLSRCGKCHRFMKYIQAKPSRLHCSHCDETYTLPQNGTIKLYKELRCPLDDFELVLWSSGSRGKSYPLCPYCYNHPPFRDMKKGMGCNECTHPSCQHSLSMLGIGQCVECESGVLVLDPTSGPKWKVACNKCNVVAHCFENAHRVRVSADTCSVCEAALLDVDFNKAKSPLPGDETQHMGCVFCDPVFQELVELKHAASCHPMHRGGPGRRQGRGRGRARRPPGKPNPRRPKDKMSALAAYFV
Excerpt: Human TOP3B protein was obtained through custom production by Genscript. The coding sequence of human TOP3B was custom synthesized by Genscript and cloned into vector pFastBacGST to generate the recombinant baculovirus expressing human TOP3B protein with the N-terminal GST tag and C-terminal 6xHis tag. Following expression in sf9 insect cells, the recombinant TOP3B protein was purified to >95% homogeneity by Genscript using GST column and superdex 200 16/600G chromatography. A buffer containing 20 mM of Tris-HCl (pH 7.5), 750 mM of KCl, 10% glycerol, 1 mM of EDTA, 0.05% NP-40, and 1mM of DTT was used for storage and dilution.
The presence of the TDRD3 protein enhances the relaxation activity of human TOP3B through the direct binding of the proposed TOP3B hinge region for gate opening and closing. The human TDRD3 coding sequence was amplified by PCR from the TDRD3 clone in pEGFP-C1 [45] using a forward primer of 5′-[…]-3′ and a reverse primer of 5′-[…]-3′. The amplified TDRD3 gene was joined with the backbone of the DHFR-His plasmid (from New England BioLab) using the NEB HiFi assembly kit with the forward primer 5′-[…]-3′ and the reverse primer 5′-[…]-3′ so that the TDRD3 gene replaced the DHFR gene. The his-tagged TDRD3 protein was expressed from the T7 promoter in E. coli Rosetta(DE3) cells and purified using the HisPur Ni-NTA spin column from Thermo Fisher according to the manufacturer’s protocol.
Inhibition of the relaxation activity of human TOP3B was carried out in a reaction buffer containing 20 mM of HEPES-KOH, with a pH of 7.5, 1 mM of DTT, 0.1 mg/mL of BSA, and 5 mM of MgCl2. TOP3B and TDRD3 were added at 18 nM to each reaction mix followed by 0.5 μL of DMSO or indicated concentrations of compounds, and lastly by the addition of 500 ng of supercoiled pBAD/Thio plasmid DNA (purified by CsCl gradient centrifugation) for a final reaction volume of 20 μL. After mixing by gentle vortex, the reaction mixtures were spun down and incubated at 37 °C for 1 h. The relaxation reactions were terminated by the addition of 1 μL of 10% SDS and 2 μL of 800 units/mL of proteinase K (New England Biolabs) and incubated at 45 °C for 30 min. Following the addition of 5 μL of stop solution (50 mM of EDTA, 50% glycerol, and 0.5% v/v bromophenol blue), the reaction products were analyzed in a 1% agarose gel with TAE (40 mM of Tris-acetate, pH 8.0, 2 mM of EDTA) buffer containing 5 μg/mL of chloroquine at 25 V (1 V/cm) for 18 h. Gels were washed with TAE buffer for 1 h and 50 mM of NaCl for 1 h to remove the chloroquine, and finally with deionized water for 30 min. Gels were stained for 2 h with 1 μg/mL of SYBR Gold solution (Thermo Fischer Scientific, Waltham, MA, USA). Gels were destained with deionized water for 15 min and photographed over UV light with the AlphaImager system. The amount of the relaxed DNA produced by TOP3B in each reaction was quantified using the AlphaImager software version 1.5.0 to calculate the percentage of inhibition versus the DMSO control.

human TOP1 = target: T2, human TOP1 (Homo sapiens, UniProt P11387); assay: Assay of inhibition of human TOP1 relaxation activity (gel electrophoresis); type: biochemical; details: DNA relaxation, 1 unit enzyme, supercoiled pBAD/Thio plasmid, 37 °C 30 min
T2 construct: made in house; host or cells: Saccharomyces cerevisiae strain EKY3
T2 sequence (P11387 1-765): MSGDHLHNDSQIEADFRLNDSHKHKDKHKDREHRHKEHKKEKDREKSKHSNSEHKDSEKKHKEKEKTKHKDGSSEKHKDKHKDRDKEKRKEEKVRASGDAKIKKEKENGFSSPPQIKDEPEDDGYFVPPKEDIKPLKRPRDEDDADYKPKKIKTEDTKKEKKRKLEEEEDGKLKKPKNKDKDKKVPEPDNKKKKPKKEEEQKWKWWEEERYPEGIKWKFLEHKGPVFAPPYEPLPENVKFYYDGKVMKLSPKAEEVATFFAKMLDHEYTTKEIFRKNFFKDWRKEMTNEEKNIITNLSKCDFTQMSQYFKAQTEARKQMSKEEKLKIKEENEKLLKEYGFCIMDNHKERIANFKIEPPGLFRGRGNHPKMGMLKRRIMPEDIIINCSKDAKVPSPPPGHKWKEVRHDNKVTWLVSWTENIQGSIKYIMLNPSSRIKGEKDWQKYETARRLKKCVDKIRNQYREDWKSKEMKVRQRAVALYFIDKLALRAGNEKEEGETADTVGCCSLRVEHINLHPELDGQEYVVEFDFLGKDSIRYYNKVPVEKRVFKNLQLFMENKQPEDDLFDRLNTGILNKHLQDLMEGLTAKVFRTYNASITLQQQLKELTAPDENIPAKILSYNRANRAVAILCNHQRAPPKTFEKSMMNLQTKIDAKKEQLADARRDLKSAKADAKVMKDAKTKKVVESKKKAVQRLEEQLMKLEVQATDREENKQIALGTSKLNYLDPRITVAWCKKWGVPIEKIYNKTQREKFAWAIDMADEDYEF
Description: Recombinant human TOP1 was expressed from clone pYES2-TOP1 transformed into Saccharomyces cerevisiae strain EKY3 [46]. Inhibition of TOP1 relaxation activity was assayed as described in a 20 µL reaction containing 200 ng of supercoiled pBAD/Thio plasmid DNA and 1 unit of enzyme in 10 mM of Tris-HCl, with a pH of 8.0, 1 mM of EDTA, 150 mM of NaCl, 0.1 mM of spermidine, 0.1 mg/mL of BSA, and 5% glycerol. The reactions were incubated at 37 °C for 30 min before the addition of 4 µL of stop solution (6% SDS, 0.6% (wv/v)) bromophenol blue and 40% glycerol. Gel electrophoresis for the separation of the supercoiled DNA substrate from the relaxed DNA was conducted in 1% agarose gel with TAE buffer for 20 h at 25 V. The DNA was stained with ethidium bromide for an hour and then soaked in water for 5 min. Gels were photographed over UV light with the AlphaImager system. The amount of the supercoiled DNA substrate remaining in each reaction was quantified using the AlphaImager software to calculate the percentage of inhibition versus the DMSO control.

Row | SMILES | Inhibition of the DNA relaxation activity of human TOP3B (human TOP3B) | also measured
1 | CC(C)[C@H](N)C(=O)n1nc(Nc2ccccc2/C=C/C(N)=O)nc1N [2710-33-343] |  | viability at 24 h, 100 µM [1]: ~60%
2 | CC(C)C[C@H](N)C(=O)n1nc(Nc2ccccc2/C=C/C(N)=O)nc1N [2710-34-357] |  | IC50 (human TOP3B): 34.5 µM; IC50 (human TOP1): 31.9 µM
3 | Nc1nc(Nc2ccc3c(c2)CC[C@@H](N2CCCC2)CC3)nn1-c1cc2c(nn1)-c1ccccc1CCC2 [Bemcentinib] | Inhibition was observed only for bemcentinib | IC50 (human TOP3B): 34.3 µM; Selectivity for inhibition of TOP3B versus TOP1 (human TOP3B; comparison of IC50 values TOP3B vs TOP1): inhibits TOP3B with greater potency than TOP1; IC50 (human TOP1): 75.8 µM
4 | CN1CCN(C2CCN(C(=O)Nc3cc(Oc4ccc(NC(=O)C5(C(=O)Nc6ccc(F)cc6)CC5)c(F)c4)ccn3)CC2)CC1 [Golvatinib] | Inhibition was observed only for bemcentinib | 
5 | Cc1cn(-c2cc(NC(=O)c3ccc(C)c(Nc4nccc(-c5cccnc5)n4)c3)cc(C(F)(F)F)c2)cn1 [Nilotinib] | Inhibition was observed only for bemcentinib | 
6 | Cc1cn(-c2cc(NC(=O)c3ccc(C)c(Nc4nccc(-c5cnccn5)n4)c3)cc(C(F)(F)F)c2)cn1 [Radotinib] | Inhibition was observed only for bemcentinib | 
7 | CNC(=O)c1cc(Oc2ccc(NC(=O)Nc3cc(C(C)(C)C)nn3-c3ccc4ncccc4c3)c(F)c2)ccn1 [Rebastinib] | Inhibition was observed only for bemcentinib | 
8 | Cc1cc(Nc2ncnc3ccc(NC4=NC(C)(C)CO4)cc23)ccc1Oc1ccn2ncnc2c1 [Tucatinib] | Inhibition was observed only for bemcentinib | 
